One compound from ChEMBL document CHEMBL1275552, “In vitro activities at pH 5.0 and pH 7.0 and in vivo efficacy of flucytosine against Aspergillus fumigatus” (Antimicrob Agents Chemother, 2008) can be followed below.

Converted amounts (≈) assume the structure as drawn. The source made the active and inactive calls. The rule behind the calls is not given here.

The subject of one data set is Aspergillus sp. Nature of the data set: Antifungal activity against Aspergillus sp. by broth microdilution method. The class given is functional. A general note: In broth dilution the organism is exposed to a series of concentrations in liquid medium.
Data set [1] concerns Aspergillus fumigatus. Kind of data set: Antifungal activity against Aspergillus fumigatus at pH 7.0 by broth microdilution method. It counts as functional.
The test system of data set [2] is Aspergillus fumigatus. Nature of the data set: Antifungal activity against Aspergillus fumigatus at pH 5.0 by broth microdilution method. The class given is functional.
Data set [3] concerns Aspergillus fumigatus. Nature of the data set: Antifungal activity against flucytosine-susceptible Aspergillus fumigatus isolate AZN 58 infected in CD-1 mouse assessed as prolongation of survival at 100 mg/kg administered every 6 hrs. It counts as functional, organism-based. Also on record: dose 100 mg/kg.
The subject of data set [4] is Aspergillus fumigatus. Kind of data set: Antifungal activity against flucytosine-susceptible Aspergillus fumigatus isolate AZN 58 infected in CD-1 mouse assessed as prolongation of survival at 200 mg/kg administered every 6 hrs. The class given is functional, organism-based. Also noted: dose 200 mg/kg.
Data set [5] concerns Aspergillus fumigatus. Nature of the data set: Antifungal activity against flucytosine-susceptible Aspergillus fumigatus isolate AZN 58 infected in CD-1 mouse assessed as prolongation of survival at 200 mg/kg administered every 12 hrs. It counts as functional, organism-based. Also noted: dose 200 mg/kg.
The subject of data set [6] is Aspergillus fumigatus. Kind of data set: Antifungal activity against flucytosine-susceptible Aspergillus fumigatus isolate AZN 58 infected in CD-1 mouse assessed as prolongation of survival at 100 mg/kg administered every 12 hrs. It counts as functional, organism-based. Also on record: dose 100 mg/kg.
Data set [7] is described as follows: Half life in CD-1 mouse at 800 mg/kg. Particulars: in vivo. The class given is ADME, organism-based. Also on record: dose 800 mg/kg.
The nature of data set [8]: Half life in human. The class given is ADME, organism-based. Particulars: in vivo.
For data set [9], the system named is Aspergillus fumigatus. Nature of the data set: Antifungal activity against flucytosine-resistant Aspergillus fumigatus isolate AZN 58 infected in CD-1 mouse at 100 mg/kg administered every 6 hrs. The class given is functional, organism-based. Also noted: dose 100 mg/kg.
Data set [10] has as its system Aspergillus fumigatus. Nature of the data set: Antifungal activity against flucytosine-resistant Aspergillus fumigatus isolate AZN 58 infected in CD-1 mouse at 200 mg/kg administered every 6 hrs. It counts as functional, organism-based. Also on record: dose 200 mg/kg.
Data set [11] has as its system Aspergillus fumigatus. Kind of data set: Antifungal activity against flucytosine-resistant Aspergillus fumigatus isolate AZN 58 infected in CD-1 mouse at 200 mg/kg administered every 12 hrs. It counts as functional, organism-based. Also on record: dose 200 mg/kg.
For data set [12], the system named is Aspergillus fumigatus. Kind of data set: Antifungal activity against flucytosine-resistant Aspergillus fumigatus isolate AZN 58 infected in CD-1 mouse at 100 mg/kg administered every 12 hrs. It counts as functional, organism-based. Also on record: dose 100 mg/kg.

Regarding `Nc1nc(=O)[nH]cc1F` [FLUCYTOSINE], the MIC in the data set with Aspergillus sp. is > 64 µg/mL; in the data set with Aspergillus fumigatus [1], 128 µg/mL (≈ 992 µM); in the data set with Aspergillus fumigatus [2], 0.125 µg/mL (≈ 0.968 µM). For the same compound, the outcome with Aspergillus fumigatus [3], in the data set with Aspergillus fumigatus [4], with Aspergillus fumigatus [5] and with Aspergillus fumigatus [6] was Active. Further, the half-life in [7] was 0.5 h; in data set [8], 2.5 h. Moreover, the outcome in the data set with Aspergillus fumigatus [9], with Aspergillus fumigatus [10], with Aspergillus fumigatus [11] and in the data set with Aspergillus fumigatus [12] was inactive.

Usually MIC stands for the lowest concentration found to suppress growth. A low value points to inhibition by little substance. By half-life is commonly meant the time in which the quantity being followed falls by half. A low value points to fast loss.
